Molecular target: T1, MLLT1 (Homo sapiens, UniProt Q03111)
T1 construct: endogenous in cells; host or cells: MV4-11 (ATCC CRL-9591)
T1 sequence (Q03111 1-559): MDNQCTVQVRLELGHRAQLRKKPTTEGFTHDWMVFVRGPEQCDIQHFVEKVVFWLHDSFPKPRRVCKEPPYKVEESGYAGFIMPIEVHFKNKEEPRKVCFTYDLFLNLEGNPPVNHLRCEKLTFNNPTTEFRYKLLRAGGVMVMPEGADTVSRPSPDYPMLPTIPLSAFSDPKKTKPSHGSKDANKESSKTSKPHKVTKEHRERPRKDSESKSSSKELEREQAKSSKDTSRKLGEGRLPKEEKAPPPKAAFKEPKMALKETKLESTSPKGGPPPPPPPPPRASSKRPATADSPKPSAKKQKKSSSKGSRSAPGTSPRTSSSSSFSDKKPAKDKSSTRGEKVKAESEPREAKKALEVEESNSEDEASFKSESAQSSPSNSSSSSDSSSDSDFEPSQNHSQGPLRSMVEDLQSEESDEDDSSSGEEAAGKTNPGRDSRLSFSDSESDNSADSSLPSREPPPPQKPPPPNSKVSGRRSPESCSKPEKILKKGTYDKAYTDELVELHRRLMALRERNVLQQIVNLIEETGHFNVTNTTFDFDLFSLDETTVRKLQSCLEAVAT
Assay: MLLT1 degradation assay (JESS automated chemiluminescent detection) in MV4-11 cells
Assay type: cell-based
Conditions: 24h, with respect to DMSO control
How it was run: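 MV4-11 cells were treated with 1000, 100 or 10 nM compound (0.1% DMSO) for 24 h at 37 °C. Lysates (4 µg protein) were probed for MLLT1 and GAPDH by JESS capillary chemiluminescence. Degradation was calculated from band peak areas versus DMSO control and binned into categories A–D.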

| SMILES | inhibition at 0.01 µM [%] | inhibition at 0.1 µM [%] | inhibition at 1 µM [%] |
| --- | --- | --- | --- |
| Cc1nn(CCCCCCCC#Cc2ccc(C(=O)N[C@H]3CCC(=O)NC3=O)nc2)c2cc(C(=O)Nc3cc4[nH]c([C@H]5CCCN5C)cc4cn3)ccc12 [Example 41, 1-(9-(6-(((S)-2,6-dioxopiperidin-3-yl)carbamoyl)pyridin-3-yl)non-8-yn-1-yl)-3-methyl-N-(2-((R)-1-methylpyrrolidin-2-yl)-1H-pyrrolo [3,2-c]pyridin-6-yl)-1H-indazole-6-carboxamide] | < 25 | 25 to 50 | 50 to 75 |
| Cc1nn(CCCCCCCC#Cc2cccc(C(=O)N[C@H]3CCC(=O)NC3=O)c2F)c2cc(C(=O)Nc3cc4[nH]c([C@H]5CCCN5C)cc4cn3)ccc12 [Example 51, 1-(9-(3-(((S)-2,6-dioxopiperidin-3-yl)carbamoyl)-2-fluorophenyl)non-8-yn-1-yl)-3-methyl-N-(2-((R)-1-methylpyrrolidin-2-yl)-1H-pyrrolo[3,2-c]pyridin-6-yl)-1H-indazole-6-carboxamide] | 25 to 50 | 50 to 75 | ≥ 75 |
| Cc1nn(C2CCC(CCCC#Cc3cccc4c3CN(C3CCC(=O)NC3=O)C4=O)CC2)c2cc(C(=O)Nc3cc4[nH]c([C@H]5CCCN5C)cc4cn3)ccc12 (stereo partly drawn) [Example 74, 1-(4-(5-(2-(2,6-dioxopiperidin-3-yl)-1-oxoisoindolin-4-yl)pent-4-yn-1-yl)cyclohexyl)-3-methyl-N-(2-((R)-1-methylpyrrolidin-2-yl)-1H-pyrrolo[3,2-c]pyridin-6-yl)-1H-indazole-6-carboxamide] | 50 to 75 | 50 to 75 | ≥ 75 |
| Cc1nn(CCCCCN2CCN(c3cc4c(cc3F)C(=O)N(C3CCC(=O)NC3=O)C4=O)CC2)c2cc(C(=O)Nc3cc4[nH]c([C@H]5CCCN5C)cc4cn3)ccc12 (stereo partly drawn) [Example 23, 1-(5-(4-(2-(2,6-dioxopiperidin-3-yl)-6-fluoro-1,3-dioxoisoindolin-5-yl)piperazin-1-yl)pentyl)-3-methyl-N-(2-((R)-1-methylpyrrolidin-2-yl)-1H-pyrrolo[3,2-c]pyridin-6-yl)-1H-indazole-6-carboxamide] | ≥ 75 | ≥ 75 | ≥ 75 |
| CN1CCC[C@@H]1c1cc2cnc(NC(=O)c3ccc4cnn(CCCCCCCC#Cc5cccc6c5CN(C5CCC(=O)NC5=O)C6=O)c4c3)cc2[nH]1 (stereo partly drawn) [Example 55, 1-(9-(2-(2,6-dioxopiperidin-3-yl)-1-oxoisoindolin-4-yl)non-8-yn-1-yl)-N-(2-((R)-1-methylpyrrolidin-2-yl)-1H-pyrrol[3,2-c]pyridin-6-yl)-1H-indazole-6-carboxamide] | 50 to 75 | ≥ 75 | ≥ 75 |
| CN1CCC[C@@H]1c1cc2cnc(NC(=O)c3ccc4c(cnn4CCCCCCCCNc4cccc5c4C(=O)N(C4CCC(=O)NC4=O)C5=O)c3)cc2[nH]1 (stereo partly drawn) [Example 36, 1-(8-((2-(2,6-dioxopiperidin-3-yl)-1,3-dioxoisoindolin-4-yl)amino)octyl)-N-(2-((R)-1-methylpyrrolidin-2-yl)-1H-pyrrolo[3,2-c]pyridin-6-yl)-1H-indazole-5-carboxamide] | ≥ 75 | ≥ 75 | ≥ 75 |
| Cc1nn(C2CCN(CC3CCN(c4ccc5c(c4)C(=O)N(C4CCC(=O)NC4=O)C5=O)CC3)CC2)c2cc(C(=O)Nc3cc4[nH]c([C@H]5CCCN5C)cc4cn3)ccc12 (stereo partly drawn) [Example 70, 1-(1-((1-(2-(2,6-dioxopiperidin-3-yl)-1,3-dioxoisoindolin-5-yl)piperidin-4-yl)methyl)piperidin-4-yl)-3-methyl-N-(2-((R)-1-methylpyrrolidin-2-yl)-1H-pyrrolo[3,2-c]pyridin-6-yl)-1H-indazole-6-carboxamide] | ≥ 75 | ≥ 75 | ≥ 75 |

From EP4667466A1, “PROTAC DEGRADERS OF MLLT1 AND/OR MLLT3” (priority 2024, dated 2025)
